Results as given in PMC3466270 (PLoS ONE, 2012).

Target: RSL lectin (fucose binding lectin RSL) (Ralstonia pseudosolanacearum, UniProt Q8XXK6)
Assay: biochemical

CO[C@@H]1O[C@@H](C)[C@@H](O)[C@@H](O)[C@@H]1O [α-L-Me-fucoside] gave a Kd of 600 nM.
